The test system of experiment [1] is cyclin D1, cyclin E, Survivin, β-Actin, α-Tubulin expression in CRL-2813 melanoma cells. Put plainly: Western blot of regulatory and housekeeping protein expression in CRL-2813 cells. The experiment is classed as cell-based, Human. As to conditions: 6 hrs.
A further experiment deals with eIF4E (GST-eIF4E) (Homo sapiens, UniProt P06730). Put plainly: Fluorescence polarization. The experiment is classed as binding. As to conditions: for FP ratio: Table 3, IC50 of [Z]-4EGI-1/IC50 of compound in the same plate; for loss in binding affinity: relative to 4EGI-1, FP.
Sequence of eIF4E (GST-eIF4E) (P06730 27-217 limits assumed): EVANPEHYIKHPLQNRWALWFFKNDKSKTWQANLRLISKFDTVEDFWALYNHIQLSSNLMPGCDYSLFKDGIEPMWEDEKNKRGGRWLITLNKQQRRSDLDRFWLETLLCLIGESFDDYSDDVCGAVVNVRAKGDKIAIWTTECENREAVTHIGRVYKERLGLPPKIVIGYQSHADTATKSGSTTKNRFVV
Experiment [2] addresses GST-eIF4E fusion protein (recombinant, E. coli-expressed) (not stated (human or mouse cDNA cloned)) (UniProt P06730). Put plainly: fluorescence polarisation.

Ends that are not written are not given here. fluorescein = fluorescein label on the lysine ε-amino group

Sequence of GST-eIF4E fusion protein (recombinant, E. coli-expressed) (not stated (human or mouse cDNA cloned)) (P06730 27-217 limits assumed): as above

On to `O=C(O)/C(Cc1ccccc1[N+](=O)[O-])=N\Nc1nc(-c2ccc(O)cc2)cs1` [[Z]-12b, 2-(2-(4-(4-Hydroxyphenyl)thiazol-2-yl)hydrazono)-3-(2-nitrophenyl)propanoic acid], for which, in experiment [1], the “expression of housekeeping proteins β-Actin and α-Tubulin” value is “no effect”; the “expression of regulatory proteins cyclin D1, cyclin E, and Survivin” value is on record as “no effect”.

Take “2-(2-(5-(3,4-Dichlorophenyl)thiazol-2-yl)hydrazono)-3-(4-hydroxy-3-nitrophenyl)propanoic acid [[E]-11c]”: the FP ratio on eIF4E (GST-eIF4E) amounted to 0.9.

Consider “4-(2-Carboxy-2-(2-(5-(3,4-dichlorophenyl)thiazol-2-yl)hydrazono)ethyl)-3-nitrobenzoic acid [[Z]-11b]”, for which the FP ratio on eIF4E (GST-eIF4E) stood at 0.9.

For “2-(2-(5-(3,4-Dichlorophenyl)thiazol-2-yl)hydrazono)-3-(4-hydroxy-3-nitrophenyl)propanoic acid [[Z]-11c]”, the FP ratio at eIF4E (GST-eIF4E) was 1.1.

Consider `O=C(O)C(Cc1ccc(C(F)(F)F)cc1)=NNc1nc(-c2ccc(Cl)c(Cl)c2)cs1` [Compound 10i, 2-(2-(4-(3,4-Dichlorophenyl)thiazol-2-yl)hydrazono)-3-(4-(trifluoromethyl)phenyl)propanoic acid], for which the “loss in binding affinity” value at eIF4E (GST-eIF4E) is recorded as 30–40%.

As to “3-(4-Amino-3-nitrophenyl)-2-(2-(5-(3,4-dichlorophenyl)thiazol-2-yl)hydrazono)propanoic acid [[E]-11a]”, at eIF4E (GST-eIF4E), the FP ratio was determined as 1.0.

For `O=C(O)C(Cc1ccc(O)cc1)=NNc1nc(-c2ccc(Cl)c(Cl)c2)cs1` [Compound 10d, 2-(2-(4-(3,4-Dichlorophenyl)thiazol-2-yl)hydrazono)-3-(4-hydroxyphenyl)propanoic acid], at eIF4E (GST-eIF4E), the “loss in binding affinity” value is on record as 30–40%.

On to `O=C(O)/C(Cc1ccccc1[N+](=O)[O-])=N\Nc1nc(-c2ccc(Cl)c(Cl)c2)cs1` [[Z]-4EGI-1, 2-(2-(4-(3,4-Dichlorophenyl)thiazol-2-yl)hydrazono)-3-(2-nitrophenyl)propanoic acid, reference compound], for which, in experiment [1], the “expression of housekeeping proteins β-Actin and α-Tubulin” value was “not affected”; the “expression of regulatory proteins cyclin D1, cyclin E, and Survivin” value was “markedly reduced”.

As for “4-(2-Carboxy-2-(2-(5-(3,4-dichlorophenyl)thiazol-2-yl)hydrazono)ethyl)-3-nitrobenzoic acid [[E]-11b]”, the FP ratio at eIF4E (GST-eIF4E) was 0.6.

B1: fluorescein labeled eIF4G-derived peptide …(ε-Flu)-OH (peptide)
peptide: KYTYDELFQLK(fluorescein)-OH
For the molecule B1, in experiment [2], the Kd came out at 3000 nM.

These data come from publication PMC4128255 (European journal of medicinal chemistry, 2014).
